# Calls of active or inactive are those of the source. The rule behind the calls is not given here.
# Columns and labels:
# Trypanosoma cruzi [1] = test: Antitrypanosomal activity against bloodstream trypomastigote form of Trypanosoma cruzi NINOA isolated from infected mouse at the peak of parasitemia assessed as reduction in number of live parasites at 161 uM after 24 hrs; assay type: functional; parameters: scale not given: the % may be the effect or the level left
# Trypanosoma cruzi [2] = test: Antitrypanosomal activity against bloodstream trypomastigote form of Trypanosoma cruzi NINOA isolated from infected mouse at the peak of parasitemia assessed as reduction in number of live parasites at 178 uM after 24 hrs; assay type: functional, organism-based
# Trypanosoma cruzi [3] = test: Antitrypanosomal activity against bloodstream trypomastigote form of Trypanosoma cruzi NINOA isolated from infected mouse at the peak of parasitemia assessed as reduction in number of live parasites at 18 to 36 uM after 24 hrs; assay type: functional, organism-based
# Trypanosoma cruzi [4] = test: Antitrypanosomal activity against bloodstream trypomastigote form of Trypanosoma cruzi NINOA isolated from infected mouse at the peak of parasitemia assessed as reduction in number of live parasites at 5 to 50 ug/ml after 24 hrs
# Trypanosoma cruzi [5] = test: Antitrypanosomal activity against bloodstream trypomastigote form of Trypanosoma cruzi NINOA isolated from infected mouse at the peak of parasitemia assessed as reduction in number of live parasites at 5 to 50 ug/ml after 24 hrs; assay type: functional, organism-based
structure (smiles),measurement,setting,value
O=C(c1cccc([N+](=O)[O-])c1)c1[nH]c(=O)c2ccccc2c1O,Activity,Trypanosoma cruzi [1],47%
Nc1cccc(C(=O)c2[nH]c(=O)c3ccccc3c2O)c1,Activity,Trypanosoma cruzi [2],inactive
same,Activity,Trypanosoma cruzi [3],Active
same,Activity,Trypanosoma cruzi [4],Active
O=C(c1ccccc1)c1[nH]c(=O)c2ccccc2c1O,Activity,Trypanosoma cruzi [5],inactive
O=C(Cn1ccnc1[N+](=O)[O-])NCc1ccccc1,Activity,Trypanosoma cruzi [4],Active

# — ChEMBL document CHEMBL2203182, “Identification of benzoylisoquinolines as potential anti-Chagas agents” (2012)
